Reference: the RepoRT retention time repository (doi:10.1016/j.scitotenv.2015.09.145)

Experiment: Waters Atlantis T3, 100 × 2.1 mm, 3 µm, 0.1 mL/min, estimated dead time 2.2 min; A: water + 0.01% formic acid; B: methanol; gradient (min/%B) 0/2 3/2 20/100 29/100
Conditions: stereoisomer not certain

Structure (SMILES)	LC retention time [min]
Nc1ccc(S(=O)(=O)Nc2ncccn2)cc1	13.2
Cn1c(=O)c2[nH]cnc2n(C)c1=O	14.3
CC(N)Cc1ccccc1 (stereo not given)	13.3
OCCOCCN1CCN(C2=Nc3ccccc3Sc3ccccc32)CC1	17.6
CN(C)CCC=C1c2ccccc2COc2ccccc21	17.6
CN1CCC23c4c5ccc(O)c4OC2C(O)C=CC3C1C5 (stereo not given)	10.1
CCC(=O)C(CC(C)N(C)C)(c1ccccc1)c1ccccc1 (stereo not given)	18.5
Nc1nc(N)c2nc(-c3ccccc3)c(N)nc2n1	14.7
Cc1nnc(NS(=O)(=O)c2ccc(N)cc2)s1	14.8
CN1CCN2c3ncc(O)cc3Cc3ccccc3C2C1 (stereo not given)	14.4
COCC(NC(C)=O)C(=O)NCc1ccccc1 (stereo not given)	16.8
CCC1OC(=O)C(C)C(OC2CC(C)(OC)C(O)C(C)O2)C(C)C(OC2OC(C)CC(N(C)C)C2O)C(C)(O)CC(C)C(=O)C(C)C(O)C1(C)O (stereo not given)	18.5
COc1cc(NS(=O)(=O)c2ccc(N)cc2)ncn1	15.2
NC(N)=NS(=O)(=O)c1ccc(N)cc1	7.11
Cc1nc(NS(=O)(=O)c2ccc(N)cc2)oc1C	16
NC(=O)N1c2ccccc2CC(=O)c2ccccc21	18.8
O=C1CN=C(c2ccccc2)c2cc([N+](=O)[O-])ccc2N1	20.4
CCNC(C)Cc1ccc2c(c1)OCO2 (stereo not given)	14.1
CCN(CC)C(=O)C1C=C2c3cccc4[nH]cc(c34)CC2N(C)C1 (stereo not given)	15.8
CN(C)C1C(=O)C(C(N)=O)=C(O)C2(O)C(=O)C3=C(O)c4c(O)cccc4C(C)(O)C3CC12 (stereo not given)	14.8
COc1cccc(C2(O)CCCCC2CN(C)C)c1 (stereo not given)	14.6
CCN1CCCC1CNC(=O)c1cc(S(=O)(=O)CC)c(N)cc1OC (stereo not given)	13.4
CC(=O)OC1C=CC2C3Cc4ccc(O)c5c4C2(CCN3C)C1O5 (stereo not given)	13
CN(C)CCCN1c2ccccc2CCc2ccccc21	18.6
COc1cc(NS(=O)(=O)c2ccc(N)cc2)nc(OC)n1	17.5
CCC1OC(=O)C(C)C(OC2CC(C)(OC)C(O)C(C)O2)C(C)C(OC2OC(C)CC(N(C)C)C2O)C(C)(O)CC(C)CN(C)C(C)C(O)C1(C)O (stereo not given)	17.4
Cc1ccnc(NS(=O)(=O)c2ccc(N)cc2)n1	14.2

Structure (SMILES)	LC retention time [min]
CC(=O)Oc1ccc2c3c1OC1C(OC(C)=O)C=CC4C(C2)N(C)CCC341 (stereo not given)	14.7
CN(C)C1C(=O)C(C(N)=O)=C(O)C2(O)C(=O)C3=C(O)c4c(O)cccc4C(C)(O)C3C(O)C12 (stereo not given)	15.1
C=CC1(C)CC(OC(=O)CSCCN(CC)CC)C2(C)C(C)CCC3(CCC(=O)C32)C(C)C1O (stereo not given)	18.1
Cc1cc2c(s1)Nc1ccccc1N=C2N1CCN(C)CC1	20.4
COC(=O)C1C(OC(=O)c2ccccc2)CC2CCC1N2C (stereo not given)	14.9
COc1ccc(C(CN(C)C)C2(O)CCCCC2)cc1 (stereo not given)	16.6
CCC(C(N)=O)N1CCCC1=O (stereo not given)	13.6
CC(C)CC(CN)CC(=O)O (stereo not given)	13.2
CC=C1N(C)C(C)CC1(c1ccccc1)c1ccccc1 (stereo not given)	16.9
CCn1cc(C(=O)O)c(=O)c2cc3c(cc21)OCO3	20.1
CNC(C)C(O)c1ccccc1 (stereo not given)	12.4
COc1ccc2c3c1OC1C(=O)CCC4(O)C(C2)N(C)CCC314 (stereo not given)	12.6
Cc1cc(C)nc(NS(=O)(=O)c2ccc(N)cc2)n1	15
CNC(C)Cc1ccccc1 (stereo not given)	13.5
CC(N)Cc1ccc2c(c1)OCO2 (stereo not given)	13.6
CC(C)NCC(O)COc1cccc2ccccc12 (stereo not given)	17.1
CCN(C)C(=O)Oc1cccc(C(C)N(C)C)c1 (stereo not given)	14.8
c1ccc2c(c1)Cc1cccnc1N1CCNCC21 (stereo not given)	15.7
Cc1ccc(-c2nc3ccc(C)cn3c2CC(=O)N(C)C)cc1	15.5
NCC1(CC(=O)O)CCCCC1	13.3
CN1C2CCC1C(C(=O)O)C(OC(=O)c1ccccc1)C2 (stereo not given)	15.7
COc1ccc2c3c1OC1C(O)C=CC4C(C2)N(C)CCC341 (stereo not given)	12.2
CC1=C(C(=O)O)N2C(=O)C(NC(=O)C(N)c3ccccc3)C2SC1 (stereo not given)	14.3
CNC(C)Cc1ccc2c(c1)OCO2 (stereo not given)	17.4
CNCCC(Oc1cccc2ccccc12)c1cccs1 (stereo not given)	18.7
CN(C)CCC=C1c2ccccc2CCc2ccccc21	18.9
CCC1(c2ccccc2)C(=O)NCNC1=O	17

Results, then the compound that gave them:

LC retention time [min]	Structure (SMILES)
13.1	CC(=O)Nc1ccc(O)cc1
17.7	CC1c2cccc(O)c2C(O)=C2C(=O)C3(O)C(O)=C(C(N)=O)C(=O)C(N(C)C)C3C(O)C21 (stereo not given)
15	COCCc1ccc(OCC(O)CNC(C)C)cc1 (stereo not given)
19.6	Cc1ccsc1C(=CCCN1CCCC(C(=O)O)C1)c1sccc1C (stereo not given)
11.6	CCN1CCCC1CNC(=O)c1cc(S(N)(=O)=O)ccc1OC (stereo not given)
15.7	Cc1cc(NS(=O)(=O)c2ccc(N)cc2)no1
17.8	Nc1ccc(S(=O)(=O)Nc2cnc3ccccc3n2)cc1
13.3	CCCC1CC(C(=O)NC(C(C)O)C2OC(SC)C(O)C(O)C2O)N(C)C1 (stereo not given)
19.6	CCC1OC(=O)C(C)C(OC2CC(C)(OC)C(O)C(C)O2)C(C)C(OC2OC(C)CC(N(C)C)C2O)C(C)(OC)CC(C)C(=O)C(C)C(O)C1(C)O (stereo not given)
18.3	CCC1OC(=O)CC(O)C(C)C(OC2OC(C)C(OC3CC(C)(O)C(O)C(C)O3)C(N(C)C)C2O)C(CC=O)CC(C)C(=O)C=CC(C)=CC1COC1OC(C)C(O)C(OC)C1OC (stereo not given)
16	COc1ncnc(NS(=O)(=O)c2ccc(N)cc2)c1OC
14.2	CCN(CC)CC(=O)Nc1c(C)cccc1C
11.7	CC(C)NCC(O)COc1ccc(CC(N)=O)cc1 (stereo not given)
13.1	Cn1c([N+](=O)[O-])cnc1COC(N)=O
11.8	CNC(=C[N+](=O)[O-])NCCSCc1ccc(CN(C)C)o1
11.9	CN=C(NC#N)NCCSCc1nc[nH]c1C

LC retention time [min]	Structure (SMILES)
16	COc1ccc(NS(=O)(=O)c2ccc(N)cc2)nn1
19.1	CNCCC=C1c2ccccc2CCc2ccccc21
23.2	CCCCC(=O)N(Cc1ccc(-c2ccccc2-c2nn[nH]n2)cc1)C(C(=O)O)C(C)C (stereo not given)
24.7	CC(=O)C1CCC2C3CCC4=CC(=O)CCC4(C)C3CCC12C (stereo not given)
13.5	Nc1ccc(S(=O)(=O)Nc2nccs2)cc1
20.1	NC(=O)N1c2ccccc2C=Cc2ccccc21
13.2	Cc1ncc([N+](=O)[O-])n1CCO
13.8	Nc1ccc(S(=O)(=O)Nc2ccccn2)cc1
27	CCC(C)(C)C(=O)OC1CC(C)C=C2C=CC(C)C(CCC3CC(O)CC(=O)O3)C21 (stereo not given)
15.2	Cn1c(=O)c2c(ncn2C)n(C)c1=O
13.5	COc1cc(Cc2cnc(N)nc2N)cc(OC)c1OC
28.1	CC1(C)SC2C(NC(=O)C(N)c3ccc(O)cc3)C(=O)N2C1C(=O)O (stereo not given)
15.5	CN1CCN2c3ncccc3Cc3ccccc3C2C1 (stereo not given)
14.5	Cc1noc(NS(=O)(=O)c2ccc(N)cc2)c1C
14.8	CNCC(c1ccc(OC)cc1)C1(O)CCCCC1 (stereo not given)
